Results from patent publication US6440938B1, “Prevention and/or treatment of allergic conditions” (The Victoria University of Manchester, priority 1997, dated 2002).

What was measured:
MDCK cell monolayers = assay: Mannitol permeability of MDCK cell monolayers exposed to HDM proteinase fractions; type: cell-based, canine; details: for effect of inhibitor alone on intrinsic epithelial permeability: inhibitor per se, no proteinase fraction (FIG. 3); for inhibition of the action of the serine proteinase fraction on mannitol permeability: AEBSF 100μM, fraction 127 azocoll units ml^−1, 18 h (FIG. 3b)
Method: (§1) Measurements of mannitol clearance were performed on confluent cell monolayers that had been propagated on 0.4μm pore diameter Costar Transwell™ inserts coated with an ungelled ultra-thin undercoat of Madrigel. Coating was achieved by addition of 250μl aliquots of Matrigel (diluted 1:500 v/v in EMEM) to the interior of the insert followed by ambient incubation for 60 min under aseptic conditions. The solution was then aspirated and the inserts gently washed with medium before the addition of a confluent density of cell suspension.
(§2) Cells (2-5×10^5 per cm^2 growth area) were plated onto Matrigel-coated inserts. We use the term ‘insert’ as meaning the filter unit containing the cells and the term ‘well’ as referring to the cavities of the tissue culture plate. To monitor growth and integrity, inserts were taken at random, washed gently in PBS and stained under subdued illumination with acridine orange and ethidium bromide (1mg ml^−1 each in PBS). Inserts were examined by fluorescence microscopy and were used only when confluence with high viability was attained.
(§3) At confluence, the medium was aspirated from the wells and replaced with serum- and bicarbonate-free EMEM buffered with 20 mM HEPES and containing 2 mM L-glutamine. The medium from the inserts was then gently removed and replaced with 300μl of serum-free EMEM containing [^14C]-mannitol (1μCi ml^−1 and 1 mg ml^−1 unlabelled mannitol in HEPES-buffered medium). The Transwell™ plates were then equilibrated for 30 min at 37° C. on a Luckham R100 orbital shaker. Triplicate 100μl aliquots of the unused labelled mannitol solution were sampled and their radioactivity content determined by liquid scintillation spectrometry (Beckman LS6000IC) following addition of 5 ml Opti-Fluor.
(§4) After the equilibration period, the inserts were placed in fresh wells containing 1 ml of serum-free HEPES buffered EMEM and incubated at 37° C. with continuous gentle shaking. The medium from the original wells was retained and its radioactivity content determined after the addition of 10 ml Opti-Fluor. […] At timed intervals, 20μl aliquots of the basolateral bathing fluid were removed and the amount of ^14C mannitol quantified as described above for the calculation of clearance volume.
Clearance estimates were made over 3-5h and were calculated according to the relationship: [formula]
(§5) Under conditions where diffusion is the sole means of transepithelial movement of the solute, dVprobe/dt approximates closely to the permeability-surface area product thus allowing estimation of the permeability of mannitol in the composite system of cells, filter, unstirred layers and protein coating (Pt). Epithelial permeability can be calculated from the measured variable by considering the Matrigel-coated filter and unstirred layers as a system of series permeabilities. Thus: [formula]
Unstirred layer thicknesses are independent of membrane permeability under ideal conditions thus P3 in equations (3) and (4) are identical. Subtracting equations (2) and (3) thus permits the calculation of the permeability of the epithelial monolayer (5). [formula]
Analysis of variance was performed after log transformation of the permeability data and probability values for the different treatments assigned using the least significant difference test. Data are presented as the geometric mean values with indicated standard errors of n experimental observations. Probability levels of P<0.05 were considered statistically significant.

Calu-3 cell monolayers = assay: Mannitol permeability of Calu-3 cell monolayers exposed to HDM proteinase fractions; type: cell-based, human; details: for inhibition of the permeability change caused by the serine proteinase fraction: E-64 10μM, fraction 94 azocoll units ml^−1, 18 h (FIG. 4b); for mannitol permeability: P<0.05, n=5
Method: as §1, §2, §3, §4
Paracellular permeability of mannitol was determined in accordance with the procedure described in our copending U.K. Patent Application No. 9715058 and was calculated from measurements of clearance volume at defined time points. Clearance estimates were made over 3-5h and were calculated according to the relationship: [formula]
as §5
Unstirred layer thicknesses are independent of membrane permeability under ideal conditions thus P3 in equations (3) and (4) are identical. Subtracting equations (2) and (3) thus permits the calculation of the permeability of the epithelial monolayer (5). [formula] […]

[1] = tested on: intercellular junctions of MDCK cells (ZO-1, desmoplakin); assay: Immunocytochemical visualization of intercellular junctions (ZO-1, desmoplakin); type: cell-based, canine
Method: To study the effects of proteinases and inhibitors on intercellular junctions, MDCK cells were cultured on coverslips and treated with the appropriate proteinase and/or inhibitor for the desired time period. The cells were fixed in ice-cold methanol before binding of rat anti-ZO-1 (mAb R40.76) (Stevenson et al., 1986; Anderson et al., 1988) and mouse anti-desmoplakin (mAb 11-5F) (Parrish et al., 1987). Indirect fluorescent antibody staining was performed using FITC- and TRITC-conjugated second antibodies. Microscopy was carried out using a Zeiss Axiovert microscope with x40 magnification oil immersion Fluar objective. Specimens were illuminated using excitation and emission filter sets for FITC and TRITC. Cells were photographed as described above.

Calu-3 cells = assay: DNA fragmentation (agarose gel), Calu-3 cells; type: cell-based, human; details: BB-250 5μM, E-64 10μM; for inhibition of cysteine proteinase fraction-induced DNA fragmentation: fraction 80 azocoll units ml^−1 (FIG. 7b)
Method: Cells were plated on 60×15 mm petri dishes and grown for 2-4 days in serum-containing EMEM under tissue culture conditions in a 5% CO2 atmosphere. Cells were then exposed to treatments in serum-free EMEM containing 20 mM HEPES whilst under aerobic incubation at 37° C. At defined time points, cells were harvested with a scraper and pooled with detached cells in the supernatant. Cells were centrifuged at 550×g for 5 min and their DNA extracted (Nucleon II, Scotlab, Coatbridge, Stratchclyde). The extracted DNA was resuspended in 100μl TE buffer (10 mM Tris-HCL and 1 mM Na2EDTA) overnight at room temperature and its purity determined spectrophotometrically. Equal amounts of DNA were applied in 4:1 ratio with sample buffer (0.25% bromophenol blue and 40% w/v sucrose in water) to each lane of 2% (w/v) agarose gels and electrophoresis performed at 50V for 2-3h in TAE buffer (0.04M Tris-acetate and 0.001M EDTA). Bands of DNA in the gels (which had ethidium bromide incorporated into them) were visualized by ultra-violet light.

[2] = target: T1, HDM cysteine proteinase fraction (50% precipitate) (Dermatophagoides pteronyssinus, UniProt P08176); assay: Enzyme degradation of chromogenic substrates by the 50% ammonium sulphate precipitate; type: biochemical, D. pteronyssinus; details: data not shown
T1 construct: tissue Commonwealth Serum Laboratory, Parkville, Australia; host or cells: spent culture medium of D. pteronyssinus, 50% saturated ammonium sulphate pellet
T1 sequence (P08176 99-320): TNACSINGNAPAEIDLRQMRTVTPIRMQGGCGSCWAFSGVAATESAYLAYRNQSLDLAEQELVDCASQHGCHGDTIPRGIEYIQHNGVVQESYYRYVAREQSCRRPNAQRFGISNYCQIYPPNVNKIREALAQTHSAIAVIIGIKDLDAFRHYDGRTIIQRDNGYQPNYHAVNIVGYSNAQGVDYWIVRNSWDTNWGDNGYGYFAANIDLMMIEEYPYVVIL
Source text: HDM proteinase allergens have not yet been prepared in catalytically competent form by recombinant cellular expression of the mature enzyme protein. For convenience, and to enable future large scale screening of potential inhibitors in the absence of catalytically active recombinant proteins, we sought to separate the cysteine and serine proteinase activity by simple biochemical fractionation of spent medium in which HDM had been grown. During culture the HDM release allergens into the medium resulting in the accumulation of proteins suitable for purification. Spent medium from cultures of D. pteronyssinus (Commonwealth Serum Laboratory, Parkville, Australia) was dissolved in 5 volumes of phosphate buffered saline and then centrifuged at 48,400×g and 4° C. for 20 min. Ammonium sulphate was added gradually to the stirred supernatant at 4° C. to achieve a 50% saturated solution. After centrifugation (48,400×g, 20 min, 4° C.) the pellet, found by enzymatic assay to be enriched in cysteine proteinase activity, was redissolved in a minimum volume of distilled water. […] Protein content of the extracts was measured using the […] technique with serum albumin as standard (Smith et al, 1985). Proteinase activity was measured using the Azocoll degradation assay as described elsewhere (Herbert et al., 1995; Chavira et al., 1984). […]

Der p 1 = target: T2, Der p 1 (Dermatophagoides pteronyssinus, UniProt P08176); details: literature (Herbert et al. 1995; Hewitt et al. 1995, 1997); cited from earlier work
T2 sequence (P08176 99-320): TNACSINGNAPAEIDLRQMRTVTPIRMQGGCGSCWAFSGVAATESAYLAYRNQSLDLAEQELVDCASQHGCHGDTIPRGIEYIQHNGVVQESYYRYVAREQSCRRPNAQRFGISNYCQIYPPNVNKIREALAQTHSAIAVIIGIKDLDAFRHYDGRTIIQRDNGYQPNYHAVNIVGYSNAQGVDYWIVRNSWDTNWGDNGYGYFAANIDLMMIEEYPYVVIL

ICE/ced-3 caspase family = details: literature; cited from earlier work

Which results are given for `CC(C)C[C@H](NC(=O)[C@H]1O[C@@H]1C(=O)O)C(=O)NCCCCN=C(N)N` (relative stereo) [E-64, L-trans-epoxysuccinyl-leucylamido-(4-guanidino)-butane]?
inhibition of the effect of the cysteine proteinase fraction on mannitol permeability (MDCK cell monolayers; E-64 10μM, fraction 80 azocoll units ml^−1, 18 h (FIG. 3a)): attenuated; effect of inhibitor alone on intrinsic epithelial permeability (MDCK cell monolayers): no observable effect; inhibition of the permeability change caused by the serine proteinase fraction (Calu-3 cell monolayers; Calu-3): did not inhibit; mannitol permeability (Calu-3 cell monolayers; Calu-3 treated with cysteine proteinase fraction plus E-64): 4.84±0.32 ×10^−6 cm s^−1; inhibition of cysteine proteinase fraction-dependent changes in ZO-1/desmoplakin staining ([1]; E-64 10μM, fraction 80 azocoll units ml^−1): inhibited; inhibition of cysteine proteinase fraction-induced DNA fragmentation (Calu-3 cells): inhibited; catalytic activity of the 50% precipitate [2]: inhibitable; inhibition of Der p 1 activity / effects (Der p 1): sensitive to inhibition; sensitivity of ICE/ced-3 caspases to the inhibitor (ICE/ced-3 caspase family): insensitive

With `Cl.NCCc1ccc(S(=O)(=O)F)cc1` [AEBSF, 4-(2-aminoethyl)-benzenesulphonyl fluoride hydrochloride] as the molecule, how does the “inhibition of the action of the serine proteinase fraction on mannitol permeability” value (MDCK cell monolayers) read?
The value was “inhibited”.

And the “effect of inhibitor alone on intrinsic epithelial permeability” value (MDCK cell monolayers)?
Its value is “Neither inhibitor per se exerted any observable effect”.

And the “inhibition of the action of the cysteine proteinase fraction on mannitol permeability” value (Calu-3 cell monolayers; Calu-3, AEBSF 100μM, fraction 80 azocoll units ml^−1, 18 h (FIG. 4a))?
The value was “failed to inhibit”.

And the “inhibition of the permeability change caused by the serine proteinase fraction” value (Calu-3 cell monolayers; Calu-3)?
The value was “ablated”.

And the mannitol permeability (Calu-3 cell monolayers; Calu-3 treated with serine proteinase fraction plus AEBSF)?
The mannitol permeability was 10.20±0.01 ×10−6 cm s^−1.

What about the “inhibition of serine proteinase fraction-dependent changes in ZO-1/desmoplakin staining” value ([1]; AEBSF 100μM, fraction 94 azocoll units ml^−1) of the same molecule?
Its value is “inhibited”.

For `N=C(N)c1ccc(CS(=O)(=O)F)cc1` [APMSF], which “inhibition of Der p 1 activity / effects” value (Der p 1) is on record?
Its value is “reported to be inhibited”.

With `CNC(=O)[C@H](Cc1ccccc1)NC(=O)[C@H](CC(C)C)[C@H](CS(=O)(=O)c1cccs1)C(=O)NO` [BB-250, [4-(N-hydroxyamino)-2R-isobutyl-3S-(thiophen-2-yl-sulphonylmethyl)succinyl]-L-phenylalanine-N-methylamide] as the molecule, how does the “inhibition of cysteine proteinase fraction-induced DNA fragmentation” value (Calu-3 cells) read?
Its value is “attenuated”.

What about the “inhibition of serine proteinase fraction-induced DNA fragmentation” value (Calu-3 cells; fraction 94 azocoll units ml^−1 (FIG. 7b)) of the same molecule?
Its value is “attenuated”.

B1: SBTI: serine proteinase inhibitor; abbreviation not expanded in the patent (protein, UniProt P01070 25-205, looked up)
Trypsin inhibitor A: DFVLDNEGNPLENGGTYYILSDITAFGGIRAAPTGNERCPLTVVQSRNELDKGIGTIISSPYRIRFIAEGHPLSLKFDSFAVIMLCVGIPTEWSVVEDLPEGPAVKIGENKDAMDGWFRLERVSDDEFNNYKLVFCPQQAEDDKCGDIGISIDHDDGTRRLVVSKNKPLVVQFQKLDKESL
With B1 as the molecule, how does the “inhibition of the action of the serine proteinase fraction on mannitol permeability” value (MDCK cell monolayers) read?
The value was “less effectively”.

And the “effect of inhibitor alone on intrinsic epithelial permeability” value (MDCK cell monolayers)?
Its value is “Neither inhibitor per se exerted any observable effect”.
